Assay results published in ChEMBL document CHEMBL1201862, “PubChem BioAssay data set” (2004).
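Each compound was tested at five concentrations against cells in 96-well plates for 48 hours. GI50 marks 50% less growth.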 Calls of active or inactive are those of the source. No stated cut-off is given here; in the data, active = GI50 up to about 1.1 µM and inactive = higher.

What was measured:
Assay in all cases: NCI-60 cell line screen, 48 h
CCRF-CEM = tested on: CCRF-CEM
SK-MEL-28 = tested on: SK-MEL-28
NCI-H522 = tested on: NCI-H522
NCI-H460 = tested on: NCI-H460
LOX IMVI = tested on: LOX IMVI
TK-10 = tested on: TK-10
SF-539 = tested on: SF-539
OVCAR-4 = tested on: OVCAR-4
IGROV-1 = tested on: IGROV-1
HCT-116 = tested on: HCT-116
KM12 = tested on: KM12
SF-268 = tested on: SF-268
EKVX = tested on: EKVX
OVCAR-5 = tested on: OVCAR-5
SR = tested on: SR
T47D = tested on: T47D
SN12C = tested on: SN12C
MDA-N = tested on: MDA-N
NCI-H23 = tested on: NCI-H23
NCI-H226 = tested on: NCI-H226

| Compound | GI50 (CCRF-CEM) | GI50 (SK-MEL-28) | GI50 (NCI-H522) | GI50 (NCI-H460) | GI50 (LOX IMVI) | GI50 (TK-10) | GI50 (SF-539) | GI50 (OVCAR-4) | GI50 (IGROV-1) | GI50 (HCT-116) | GI50 (KM12) | GI50 (SF-268) | GI50 (EKVX) | GI50 (OVCAR-5) | GI50 (SR) | GI50 (T47D) | GI50 (SN12C) | GI50 (MDA-N) | GI50 (NCI-H23) | GI50 (NCI-H226) |
| --- | --- | --- | --- | --- | --- | --- | --- | --- | --- | --- | --- | --- | --- | --- | --- | --- | --- | --- | --- | --- |
| CN1C(=O)c2ccccc2NC(=O)C12O[C@@H]2c1ccccc1 (stereo partly drawn) | > 100 µM (inactive) | > 100 µM (inactive) | > 100 µM (inactive) | > 100 µM (inactive) | > 100 µM (inactive) | > 100 µM (inactive) | > 100 µM (inactive) | > 100 µM (inactive) | > 100 µM (inactive) | > 100 µM (inactive) | > 100 µM (inactive) | > 100 µM (inactive) | > 100 µM (inactive) | > 100 µM (inactive) | > 100 µM (inactive) | > 100 µM (inactive) | > 100 µM (inactive) | > 100 µM (inactive) | > 100 µM (inactive) | – |
| COc1ccc2oc(=N)c(C(=O)Nc3cccc4ccccc34)cc2c1 | 2.33 µM (inactive) | > 100 µM (inactive) | – | 3.95 µM (inactive) | – | 19.6 µM (inactive) | 15.3 µM (inactive) | 15.5 µM (inactive) | – | 27.7 µM (inactive) | 27.7 µM (inactive) | 25.9 µM (inactive) | 38.1 µM (inactive) | 41.3 µM (inactive) | 0.29 µM (active) | 23.6 µM (inactive) | 37.8 µM (inactive) | 0.456 µM (active) | 29.4 µM (inactive) | 25.5 µM (inactive) |
| CC(C)n1c(=O)c2nn3c(=O)n(C(C)C)c(=O)c3nn2c1=O | > 100 µM (inactive) | > 100 µM (inactive) | – | > 100 µM (inactive) | > 100 µM (inactive) | > 100 µM (inactive) | > 100 µM (inactive) | > 100 µM (inactive) | > 100 µM (inactive) | > 100 µM (inactive) | > 100 µM (inactive) | > 100 µM (inactive) | > 100 µM (inactive) | > 100 µM (inactive) | > 100 µM (inactive) | > 100 µM (inactive) | > 100 µM (inactive) | > 100 µM (inactive) | > 100 µM (inactive) | > 100 µM (inactive) |
| c1ccc2c(-c3cnc(-c4c[nH]c5ccccc45)cn3)c[nH]c2c1 | – | 35.6 µM (inactive) | 28.6 µM (inactive) | 46.9 µM (inactive) | 29.3 µM (inactive) | 47.1 µM (inactive) | 23.6 µM (inactive) | > 100 µM (inactive) | 30.8 µM (inactive) | 5.2 µM (inactive) | 74.1 µM (inactive) | 50.6 µM (inactive) | 73.6 µM (inactive) | 46.1 µM (inactive) | 30 µM (inactive) | 66.5 µM (inactive) | 31.4 µM (inactive) | 19.1 µM (inactive) | 61.8 µM (inactive) | – |
| CC(=O)c1cccn1/C=C(\OC(=O)OC(C)(C)C)c1ccc[nH]1 | 39.8 µM (inactive) | 96.6 µM (inactive) | 57 µM (inactive) | > 100 µM (inactive) | 62.4 µM (inactive) | > 100 µM (inactive) | – | 42 µM (inactive) | 40.6 µM (inactive) | 41.3 µM (inactive) | 46.3 µM (inactive) | 77.3 µM (inactive) | 25.5 µM (inactive) | 51.2 µM (inactive) | 31 µM (inactive) | 33 µM (inactive) | 96.8 µM (inactive) | 81.8 µM (inactive) | 69.8 µM (inactive) | 33.2 µM (inactive) |
| Cc1[nH]n(-c2nc3c(c(=O)[nH]2)CCCC3)c(=O)c1CCO | > 100 µM (inactive) | > 100 µM (inactive) | > 100 µM (inactive) | > 100 µM (inactive) | > 100 µM (inactive) | > 100 µM (inactive) | > 100 µM (inactive) | > 100 µM (inactive) | > 100 µM (inactive) | > 100 µM (inactive) | > 100 µM (inactive) | > 100 µM (inactive) | > 100 µM (inactive) | > 100 µM (inactive) | – | > 100 µM (inactive) | > 100 µM (inactive) | > 100 µM (inactive) | > 100 µM (inactive) | > 100 µM (inactive) |
| CC(=C\c1ccccc1)/C=C(\C#N)C(N)=O | – | > 10 µM (inactive) | > 10 µM (inactive) | > 10 µM (inactive) | > 10 µM (inactive) | > 10 µM (inactive) | > 10 µM (inactive) | – | > 10 µM (inactive) | – | > 10 µM (inactive) | > 10 µM (inactive) | > 10 µM (inactive) | > 10 µM (inactive) | – | > 10 µM (inactive) | > 10 µM (inactive) | > 10 µM (inactive) | – | > 10 µM (inactive) |
| COC(=O)[C@H](Cc1ccccc1)NC(=O)[C@H](Cc1ccccc1)NC(=O)[C@@H]1CCCN1C(=O)N[C@H]1C2C=CC(C2)C1C(=O)N1CCC[C@H]1C(=O)N[C@@H](C)C(=O)N[C@H](C(=O)OC)C(C)C (stereo partly drawn) | 22.5 µM (inactive) | > 100 µM (inactive) | 56.5 µM (inactive) | > 100 µM (inactive) | 41.3 µM (inactive) | 65.5 µM (inactive) | – | > 100 µM (inactive) | 38 µM (inactive) | > 100 µM (inactive) | > 100 µM (inactive) | 94.2 µM (inactive) | > 100 µM (inactive) | > 100 µM (inactive) | 49.7 µM (inactive) | 60.1 µM (inactive) | > 100 µM (inactive) | > 100 µM (inactive) | > 100 µM (inactive) | > 100 µM (inactive) |
| CC(C)(C)n1c(=O)[nH]n(C2NN=Cc3cccc4cccc2c34)c1=O (stereo not drawn) | 11.5 µM (inactive) | 57.3 µM (inactive) | – | 30.1 µM (inactive) | 26.9 µM (inactive) | 41.3 µM (inactive) | 16.9 µM (inactive) | 42.6 µM (inactive) | – | 38.5 µM (inactive) | 34 µM (inactive) | 26.1 µM (inactive) | 15.4 µM (inactive) | 69 µM (inactive) | 11.4 µM (inactive) | 47.9 µM (inactive) | 79.3 µM (inactive) | 26.4 µM (inactive) | 31.6 µM (inactive) | 23.2 µM (inactive) |
| O=c1/c(=C/c2ccc(-c3ccc(Cl)cc3Cl)o2)sc2n1[C@@H](c1ccc(Cl)cc1)C=C(c1cc(F)c(Cl)cc1Cl)N=2 | – | > 100 µM (inactive) | 84.3 µM (inactive) | 60.3 µM (inactive) | 57.9 µM (inactive) | 13.4 µM (inactive) | 34.8 µM (inactive) | 41.9 µM (inactive) | 33 µM (inactive) | 37.9 µM (inactive) | 87.5 µM (inactive) | 36.1 µM (inactive) | – | > 100 µM (inactive) | – | 19.2 µM (inactive) | 76.4 µM (inactive) | 53.8 µM (inactive) | 36.6 µM (inactive) | 22 µM (inactive) |
| O=C(O)/C=C\C(=O)Nc1ccc2c(c1)-c1ccccc1C2 | 56.8 µM (inactive) | > 100 µM (inactive) | 37 µM (inactive) | > 100 µM (inactive) | 77.3 µM (inactive) | > 100 µM (inactive) | – | > 100 µM (inactive) | > 100 µM (inactive) | 99.3 µM (inactive) | > 100 µM (inactive) | 58.2 µM (inactive) | 87.9 µM (inactive) | > 100 µM (inactive) | 44.9 µM (inactive) | 88.1 µM (inactive) | > 100 µM (inactive) | > 100 µM (inactive) | 70.8 µM (inactive) | 28.9 µM (inactive) |
| C=C1C[C@@H](O)[C@@H](Br)C(C)(C)[C@@]12C=CC(O)(CBr)CC2 (stereo partly drawn) | 28.1 µM (inactive) | > 100 µM (inactive) | 62.4 µM (inactive) | 66.4 µM (inactive) | 36.1 µM (inactive) | > 100 µM (inactive) | – | > 100 µM (inactive) | 89.3 µM (inactive) | > 100 µM (inactive) | 1.6 µM (inactive) | 50 µM (inactive) | 6.98 µM (inactive) | 13.7 µM (inactive) | 14.8 µM (inactive) | > 100 µM (inactive) | > 100 µM (inactive) | > 100 µM (inactive) | 94 µM (inactive) | > 100 µM (inactive) |
| CN(C)CCc1ccnc2nc(-c3ccc4ccccc4c3)cn12 | 33.3 µM (inactive) | 45.6 µM (inactive) | 12 µM (inactive) | 14.7 µM (inactive) | 25 µM (inactive) | 15.7 µM (inactive) | – | 27.5 µM (inactive) | 23.9 µM (inactive) | 31.7 µM (inactive) | 18.1 µM (inactive) | 23 µM (inactive) | 38 µM (inactive) | 47.1 µM (inactive) | 57.5 µM (inactive) | 34.9 µM (inactive) | 26.8 µM (inactive) | 29.6 µM (inactive) | 20.4 µM (inactive) | 27.8 µM (inactive) |
| COc1ccc(C2=C(OC(C)=O)c3cccn3-c3ccc(Cl)cc3S2)cc1 | 3.43 µM (inactive) | 4.75 µM (inactive) | – | – | 5.37 µM (inactive) | > 10 µM (inactive) | – | 6.22 µM (inactive) | 6.28 µM (inactive) | – | 3.63 µM (inactive) | 7.55 µM (inactive) | 6.67 µM (inactive) | – | 2.33 µM (inactive) | 5.37 µM (inactive) | 3.74 µM (inactive) | 2.13 µM (inactive) | 4.52 µM (inactive) | – |
| CCOC(=O)Nc1nn(C)/c(=N/Cc2ccccc2)s1 | > 100 µM (inactive) | > 100 µM (inactive) | 86.3 µM (inactive) | > 100 µM (inactive) | > 100 µM (inactive) | > 100 µM (inactive) | > 100 µM (inactive) | > 100 µM (inactive) | > 100 µM (inactive) | > 100 µM (inactive) | > 100 µM (inactive) | – | > 100 µM (inactive) | > 100 µM (inactive) | > 100 µM (inactive) | > 100 µM (inactive) | > 100 µM (inactive) | > 100 µM (inactive) | – | – |
